What was measured:
[1] = test system: collagen-induced arthritis (CIA) mouse model; test: Rheumatoid arthritis treatment effect in collagen-induced arthritis (CIA) mouse model; type: in vivo, DBA/1J mouse; details: CIA mice, intraperitoneally 3 times a week after second immunization; similar efficacy compared to positive control MTX
Procedure: In order to confirm a rheumatoid arthritis improvement effect of the peptides prepared in Example 1, a rheumatoid arthritis mouse model was prepared with reference to a known literature (Nat Protoc. 2007; 2 (5):
Specifically, a CIA mouse model is a mouse model most commonly used in a rheumatoid arthritis animal test as an autoimmune disease arthritis model having characteristics similar to human rheumatoid arthritis. In the CIA mouse model, bovine type II collagen (Chondrex, USA) was mixed and emulsified with a Freund's complete adjuvant (Chondrex, USA) at 1:1, and then first immunization was performed by injecting 50 μl of the emulsified collagen solution intradermally into a 6-week-old DBA/1J mouse tail. On 2 weeks after the first immunization, bovine type II collagen was mixed and emulsified with a Freund's incomplete adjuvant (Chondrex, USA) at 1:1, and then second immunization (boosting) was performed by injecting 50 μl of the emulsified collagen solution induced) intradermally into the mouse tail. After the second immunization, each peptide was intraperitoneally administered 3 times a week from the following day to observe a therapeutic effect of the peptides for rheumatoid arthritis.
In order to examine the progression of rheumatoid arthritis according to the peptide treatment of the present invention, the severity of rheumatoid arthritis over time was evaluated and measured by a rheumatoid arthritis progress index.
At this time, the arthritis progress index was evaluated as Points 0 to 4 per leg in accordance with the arthritis progress evaluation criteria by Rossoliniec, etc. in Table 2 below and shown to total Points 0 to 16 (sum of four legs). Thereafter, an average value of the results evaluated by the two observers was calculated to quantify the severity of arthritis.

[2] = test system: naive CD4+ T cells extracted from lymph nodes of the mouse; test: Th17 cell differentiation inhibition (CD4+IL-17+ T cell population); type: cell-based; details: IL-6 20 ng/ml and TGF-beta 5 ng/ml with TCR activation; peptide 10 ng/ml to 1000 ng/ml; 3 days; induced group 3.14%, non-induced 1.2%
Procedure: In order to confirm the efficacy of the synthetic peptides prepared in Example 1 to inhibit Th17 cell differentiation, naive CD4^+ T cells extracted from lymph nodes of the mouse were treated with IL-6 20 ng/ml and TGF-beta 5 ng/ml together with TCR activation to induce differentiation into Th17 cells.
At the same time, three peptides Pep2, Pep3, and Pep4 disclosed in Table 2 of Test Example 1 were treated at a concentration of 10 ng/ml to 1000 ng/ml, respectively. Then, after incubation for 3 days, CD4+IL-17+ T cell population was analyzed.

Substance	arthritis improvement (arthritis progress index, total Points 0 to 16) [1]	ratio of Th17 cells (CD4+IL-17+ T cell population) [2]
PTSPTS (Pep4)	efficacy of arthritis improvement was shown	reduced similarly to the group that did not induce differentiation
PSSPSS (Pep1)	efficacy of arthritis improvement was shown	–
PTPPTP (Pep3)	–	reduced similarly to the group that did not induce differentiation
SSPSSP (Pep2)	efficacy of arthritis improvement was shown	reduced similarly to the group that did not induce differentiation
STSSTS (Pep6)	efficacy of arthritis improvement was shown	–
